Data as given in article PMC4198181, “Gold(I) Complexes of 9-Deazahypoxanthine as Selective Antitumor and Anti-Inflammatory Agents” (PLoS ONE, 2014).

Test system: polymorphonuclear cells infiltration in hind paw tissue
Test: Ex vivo histological evaluation of hind paw tissue (HE staining, PMN infiltration)
Assay type: in vivo, Wistar-SPF rats
Settings: 6 h after carrageenan, Indomethacin 5 mg/kg
Protocol: The carrageenan-induced hind paw edema model was used for the determination of anti-inflammatory activity. Animals were i.p. pretreated with complexes 2, 4, and 5 (the dosages of the individual complexes were adjusted to contain the same amount of gold as in 10 mg/kg dose of Auranofin), Indomethacin (5 mg/kg), or 25% DMSO (v/v in water) 30 min prior to the injection of 1% λ-carrageenan solution (50 µL) into the plantar side of right hind paws of the rats. The paw volume was measured immediately after the carrageenan injection (this value was set-up as baseline value for the hind paw volume) and during the next 6 h after the administration of the edematogenic agent using a plethysmometer (model 7159, Ugo Basile, Varese, Italy). The degree of swelling was evaluated as a percentage of the change of the volume of the right hind paw after the carrageenan treatment from the baseline volume. A non-steroidal anti-inflammatory drug Indomethacin was used as a positive control and the obtained data were also compared with the previously reported profile of antiedematous activity for Auranofin [38]. After 6 h, the animals were sacrificed and the edematous feet were dissected, the tissue from the plantar parts was extracted, fixed and stained by a standard hematoxylin/eosin (HE) staining for cytological evaluation of polymorphonuclear cells infiltration.
To assess the tissue consequences connected with the reduction of inflammation caused by the tested compounds after the intraplantar injection of carrageenan, the histopathological observations were made on the tissue sections obtained from the laboratory animals after the plethysmometric experiments were finished. All animals were sacrificed by cervical dislocation, and immediately after that, the tissue samples were taken from the plantar area of hind paws. The histopathological changes in tissues, stained by the standard HE staining (see Figure 10), were evaluated by the presence of the inflammation infiltrate, which contained mainly neutrophils (polymorphonuclear cells - PMN).

In the case of COc1ccc2c(c1)c(CC(=O)O)c(C)n2C(=O)c1ccc(Cl)cc1 [Indomethacin, reference compound], the “PMN (neutrophil) infiltrate in hind paw tissue sections” value is reported as “mainly scarce and diffuse”.
